Measured values reported in patent US20150374646A1, “TREATMENT OF CANCER AND OTHER CONDITIONS USING A TRANSCRIPTION FACTOR MODULATOR” (C & C BIOPHARMA, LLC, priority 2013, published 2015).

Columns and labels:
RCH-ACV = experiment: Leukemia cell growth inhibition, CellTiter-Glo (Example 1); assay type: cell-based; details: Homo sapiens, ALL (B-cell), 72 hours
Experimental: (§1) Various human leukemia cells were grown to the logarithmic growth phase and seeded into 24-well plates. […] Treated cells were further incubated for 72 hours and then were examined for cell proliferation. Cell proliferation was determined using the CellTiter-Glo Luminescence Cell Viability assay (Promega Corporation, Madison, Wis.) according to the manufacturer's protocol. The calculated inhibition rate was determined with the following formula: Inhibition rate (%)=(1−Luminescence of experimental group/Luminescence of control group)×100. IC50 is the calculated concentration of a compound needed to inhibit half of the maximum cell growth (equivalent to cell growth in control group) based on the corresponding dose-response curve under the described experimental conditions.

HL60 = experiment: as above; assay type: cell-based, human
Experimental: as §1

BaF3 BCR-ABL T315I = experiment: as above; assay type: cell-based; details: Mouse cell line with BCR-ABL with T315I point mutation (Gleevec resistant), 72 hours
Experimental: as §1

Nalm-6 = experiment: cells; details: Homo sapiens, NALM-6, 72 h, read-out: 72 hr growth inhibition (%)
Experimental: as §1
Growth inhibition experiments were performed as previously described.

RS4;11 = experiment: Leukemia cell growth inhibition, CellTiter-Glo (Example 1); assay type: cell-based; details: Homo sapiens; RS4;11, ALL (B-cell); 72 hours
Experimental: as §1

MV4-11 cells = experiment: Subcutaneous MV4-11 leukemia tumor growth in NOD/SCID mice (Example 5); assay type: in vivo
Experimental: Female Nonobese Diabetic/Severe Combined Immunodeficiency (NOD/SCID) mice that were 4-6 weeks old were used in the experiment. The mice were fed under specific pathogen free (SPF) conditions. Food and water were available to the mice at will. A suspension of 1×10^7 cells per mouse B-myelomonocytic leukemia MV4-11 cells (0.2 mL) in logarithmic phase were inoculated subcutaneously into the right back of the NOD/SCID nude mice.
The general conditions of the mice and the growth of the transplanted tumor were monitored. […] The control group received an intraperitoneal (IP) injection of 0.2 mL of solvent (20% DMSO, 80% of 20% w/v (2-hydroxypropyl)-β-cyclodextrin made in PBS). […] The high dosage group received an intraperitoneal injection of 50 mg/kg/day of YT30 (0.2 mL in volume) suspended in solvent (20% DMSO, 80% of 20% w/v (2-hydroxypropyl)-β-cyclodextrin made in PBS), while the low dosage group received IP injection of 25 mg/kg/day YT30 (0.2 mL in volume). Frequency of the administration was once per day and the experiment lasted 27 days after treatment started.
The body weights of the mice were recorded prior to the start of treatment and twice every week thereafter. Each mouse of every group was monitored daily for any other symptoms of side effects including change in behavior, activity or posture, areas of redness and swelling, and food and water withdrawal. Caliper measurements of the longest perpendicular tumor diameters were performed every 2 days to estimate the tumor volume; the following formula: 4π/3×(width/2)^2×(length/2) was used to calculate the three-dimensional volume of an ellipse. The tumor inhibition rate was calculated according to tumor volume: Tumor inhibition rate by size (%)=(Tumor volume of the control group−Tumor volume of the treated group)/Tumor volume of the control group×100. The mice were euthanized on the next day after the final injection and the subcutaneous tumor nodules were taken out intact and weighed. The tumor inhibition rate was calculated again according to tumor weight: Tumor inhibition rate by weight (%)=(Tumor weight of the control group−Tumor weight of the treated group)/Tumor weight of the control group×100).

CCRF-CEM = experiment: Leukemia cell growth inhibition, CellTiter-Glo (Example 1); assay type: cell-based; details: Homo sapiens, ALL (T-cell), 72 hours
Experimental: as §1

Nalm-6 cells = experiment: Survival of BALB/c nude mice with Nalm-6 acute B cell lymphoblastic leukemia (Example 2); assay type: in vivo
Experimental: BALB/c nu/nu nude mice were 4 to 5 weeks old with an average weight of 22.4±1.03 grams. The mice were raised under specific pathogen-free (SPF) conditions and had access to food and water freely. Cyclophosphamide at about 130 mg/kg per day was administrated with intraperitoneal (IP) injection for 2 days. Twenty-four hours later, a suspension of 3.5×10^6 or 5×10^6 Nalm-6 cells (0.2 mL) were injected through tail vein of each BALB/c nude mouse. Five days later, the mice were randomly divided into a YT30 treated group (n=5) and a solvent control group (n=5).
Mice in the YT30 treated group were intraperitoneally injected with 200 μL of YT30 (50 mg/kg) once a day, for 5 days a week, and for 3 or 4 weeks. The mice in the solvent control group were intraperitoneally injected with the same volume of solvent (20% DMSO, 80% of 20% w/v (2-hydroxypropyl)-β-cyclodextrin in PBS), and were on the same treatment schedule as the YT30 treated group. The body weights of the mice were recorded prior to the start of the treatment and at least twice a week thereafter. The dosages were adjusted according to the body weight to conform to the 50 mg/kg/day treatment plan. Each mouse of every group was also monitored daily for any other symptoms of side effects including change in behavior, activity or posture, areas of redness and swelling, and food and water withdrawal. […] Dates of death were recorded.

SEM cells = experiment: Leukemia cell growth inhibition, CellTiter-Glo (Example 1); assay type: cell-based; details: Homo sapiens, ALL (B-cell), 72 hours
Experimental: as §1

K-562 = experiment: as above; assay type: cell-based; details: Homo sapiens, K562; K-562, CML; 72 hours
Experimental: as §1

Nc1ccccc1NC(=O)CCCCCC(=O)Nc1cccc(Br)c1 [YT30]
IC50 (RCH-ACV): 790 nM
Growth inhibition (FIG. 1) (HL60; HL60 cells, 4 μM): significantly inhibit cell growth
IC50 (HL60; Homo sapiens, HL-60, HL60, AML (subtype APL), 72 hours): 1040 nM
IC50 (BaF3 BCR-ABL T315I): 1110 nM
inhibition at 0.5 µM (Nalm-6): 2.5%
inhibition at 1 µM (Nalm-6): 8.4%
IC50 (RS4;11): 1050 nM
Average body weight (g, x ± s) End point (MV4-11 cells; 25 mg/kg I.P. × 27 days): 21.33 ± 1.26 g
Average body weight (g, x ± s) Initial (MV4-11 cells; 25 mg/kg I.P. × 27 days): 21.61 ± 1.18 g
Body weight change (%) (MV4-11 cells; 25 mg/kg I.P. × 27 days): −1.0%
Tumor growth Inhibition by weight (%) (MV4-11 cells; 25 mg/kg I.P. × 27 days): 38.8%
Tumor size (mm^3) (MV4-11 cells; 25 mg/kg I.P. × 27 days): 1072.31 ± 296.29 mm^3
Tumor weight (g, x ± s) (MV4-11 cells; 25 mg/kg I.P. × 27 days): 1.35 ± 0.47 g
Tumor growth Inhibition by size (%) (MV4-11 cells; 25 mg/kg I.P. × 27 days (low dosage)): 51.0%
Average body weight (g, x ± s) End point (MV4-11 cells; 50 mg/kg I.P. × 27 days): 18.86 ± 1.38 g
Average body weight (g, x ± s) Initial (MV4-11 cells; 50 mg/kg I.P. × 27 days): 21.02 ± 0.97 g
Body weight change (%) (MV4-11 cells; 50 mg/kg I.P. × 27 days): −6.8%
Tumor growth Inhibition by weight (%) (MV4-11 cells; 50 mg/kg I.P. × 27 days): 58.8%
Tumor size (mm^3) (MV4-11 cells; 50 mg/kg I.P. × 27 days): 774.63 ± 269.10 mm^3
Tumor weight (g, x ± s) (MV4-11 cells; 50 mg/kg I.P. × 27 days): 0.91 ± 0.27 g
Tumor growth Inhibition by size (%) (MV4-11 cells; 50 mg/kg I.P. × 27 days (high dosage)): 64.6%
IC50 (CCRF-CEM): 1530 nM
Average life span after inoculation for IP 50 mg/KG group (Nalm-6 cells; IP 50 mg/kg qd for 5 days/week, 3 weeks, 5 × 10^6 Nalm-6 cells, 50 mg/kg): 48.8 ± 9.7 days
Mice that appeared to be cured (Nalm-6 cells; IP 50 mg/kg, 4 weeks, 3.5 × 10^6 Nalm-6 cells, euthanized 341 days after treatment start): three out of five
IC50 (SEM cells): 1150 nM
IC50 (K-562): 1820 nM
